From patent US20210332036A1, “PYRIMIDINE AND PYRAZINE HDAC1,2 INHIBITORS” (REGENACY PHARMACEUTICALS, LLC, priority 2018, published 2021)

Experiments:
[1] = PK parameters, IV dosing (plasma and brain exposure); type: in vivo; design: AUC(0-t): concentration or dose not given beside the values; settings: Mouse IV; for Kp: brain/plasma, read-out: Brain AUC/Plasma AUC
Procedure: [The procedure below names another organism; the source lists this organism under the same test.] Male SD rats were fasted overnight. Compounds of the invention were dissolved in dimethyl acetamide at 10 times the final concentration, then Solutol HS 15 (BASF) was added to a final concentration of 10%. Finally 80% saline was added and vortexed to achieve a clear solution. For the IV dosing three animals were injected via the foot dorsal vein with 1 mg/kg compound. For the PO dosing 5 mg/kg of compound was delivered by oral gavage. Blood was collected via the tail vein into K2EDTA tubes at 5 minutes, 15 minutes, 30 minutes, 1 hour, 2 hours, 4 hours, 8 hours and 24 hours after dosing. The blood was centrifuged at 2000 g for 5 minutes at 4° C. to obtain plasma. The plasma was extracted with acetonitrile and the level of compound was analyzed by LC/MS/MS. The level of compound in plasma was calculated from a standard curve in rat plasma. The IV clearance (L/h/kg) and area under the curve (h*ng/mL) were calculated using WinNonLin software. The dose adjusted area under the curve for the IV and oral dosing were used to calculate the oral bioavailability.
Pharmacokinetic properties were assessed in a rat cassette dosing experiment. The IV clearance (IV Clr.) is in units of L/hr/kg. The oral maximum plasma concentration (PO Cmax) is in units of ng/ml. The oral plasma half-life (PO T1/2) is in units of hours. The oral area under the curve (PO AUC) is in units of hours*ng/ml. The fraction absorbed by the oral route (F %) is a percentage of the oral area under the curve to the IV area under the curve, dose adjusted.

[2] = PK parameters, IP dosing (plasma and brain exposure); type: in vivo; design: AUC(0-t): concentration or dose not given beside the values; settings: Mouse IP; for Kp: brain/plasma, read-out: Brain AUC/Plasma AUC
HDAC1 = biological target: T1, HDAC1 (Homo sapiens, UniProt Q13547); test: HDAC enzyme assay, HDAC1; type: biochemical; settings: 16 μM substrate, 10 min preincubation
T1 construct: purchased BPS Biosciences
T1 sequence (Q13547 whole entry): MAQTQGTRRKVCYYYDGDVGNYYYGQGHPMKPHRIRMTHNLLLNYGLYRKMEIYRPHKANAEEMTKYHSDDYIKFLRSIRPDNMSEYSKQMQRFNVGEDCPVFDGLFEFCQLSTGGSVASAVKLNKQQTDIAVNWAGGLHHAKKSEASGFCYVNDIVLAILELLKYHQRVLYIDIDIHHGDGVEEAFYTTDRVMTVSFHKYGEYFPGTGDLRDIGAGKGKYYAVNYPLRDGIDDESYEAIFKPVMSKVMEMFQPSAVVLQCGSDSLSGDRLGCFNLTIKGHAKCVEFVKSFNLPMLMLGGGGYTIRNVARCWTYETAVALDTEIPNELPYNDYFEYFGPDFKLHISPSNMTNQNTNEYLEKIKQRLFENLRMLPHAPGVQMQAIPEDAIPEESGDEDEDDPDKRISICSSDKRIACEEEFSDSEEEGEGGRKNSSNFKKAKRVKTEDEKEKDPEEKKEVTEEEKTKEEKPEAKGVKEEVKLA
Procedure: (§1) Compounds for testing were diluted in DMSO to 50 fold the final concentration and a ten-point three-fold dilution series was made. The compounds were diluted in assay buffer (50 mM HEPES, pH 7.4, 100 mM KCl, 0.001% Tween-20, 0.05% BSA, 20 μM TCEP) to 6-fold their final concentration. The HDAC enzymes (purchased from BPS Biosciences) were diluted to 1.5-fold their final concentration in assay buffer. The tripeptide substrate and trypsin at 0.05 μM final concentration were diluted in assay buffer at 6-fold their final concentration. The final enzyme concentrations used in these assays were 3.3 ng/ml (HDAC1), 0.2 ng/ml (HDAC2) and 0.08 ng/ml (HDAC3). The final substrate concentrations used were 16 μM (HDAC1), 10 μM (HDAC2) and 17 μM (HDAC3).
(§2) Five μl of compounds and 20 μl of enzyme were added to wells of a black, opaque 384 well plate in duplicate. Enzyme and compound were incubated together at room temperature for 10 minutes. Five μl of substrate was added to each well, the plate was shaken for 60 seconds and placed into a Victor 2 microtiter plate reader. The development of fluorescence was monitored for 60 min and the linear rate of the reaction was calculated. The IC50 was determined using Graph Pad Prism by a four parameter curve fit.

HDAC2 = biological target: T2, HDAC2 (Homo sapiens, UniProt Q92769); test: HDAC enzyme assay, HDAC2; type: biochemical; settings: 10 μM substrate, 10 min preincubation
T2 construct: purchased BPS Biosciences
T2 sequence (Q92769 whole entry): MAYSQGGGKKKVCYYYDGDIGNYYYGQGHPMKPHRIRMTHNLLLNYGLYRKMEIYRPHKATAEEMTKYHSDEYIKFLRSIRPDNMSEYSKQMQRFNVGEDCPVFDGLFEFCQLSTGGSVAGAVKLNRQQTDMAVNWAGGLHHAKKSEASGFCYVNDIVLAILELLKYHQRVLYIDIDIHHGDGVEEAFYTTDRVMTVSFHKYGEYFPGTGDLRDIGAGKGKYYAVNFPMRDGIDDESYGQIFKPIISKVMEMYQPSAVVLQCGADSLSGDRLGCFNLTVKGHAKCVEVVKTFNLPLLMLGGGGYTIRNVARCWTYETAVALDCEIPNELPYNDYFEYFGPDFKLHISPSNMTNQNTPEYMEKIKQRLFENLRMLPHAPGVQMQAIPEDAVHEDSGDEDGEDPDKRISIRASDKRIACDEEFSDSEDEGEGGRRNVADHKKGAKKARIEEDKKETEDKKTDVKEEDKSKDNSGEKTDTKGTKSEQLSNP
Procedure: as §1, §2

HDAC3 = biological target: T3, HDAC3 (Homo sapiens, UniProt O15379); test: HDAC enzyme assay, HDAC3; type: biochemical; settings: 17 μM substrate, 10 min preincubation
T3 construct: purchased BPS Biosciences
T3 sequence (O15379 whole entry): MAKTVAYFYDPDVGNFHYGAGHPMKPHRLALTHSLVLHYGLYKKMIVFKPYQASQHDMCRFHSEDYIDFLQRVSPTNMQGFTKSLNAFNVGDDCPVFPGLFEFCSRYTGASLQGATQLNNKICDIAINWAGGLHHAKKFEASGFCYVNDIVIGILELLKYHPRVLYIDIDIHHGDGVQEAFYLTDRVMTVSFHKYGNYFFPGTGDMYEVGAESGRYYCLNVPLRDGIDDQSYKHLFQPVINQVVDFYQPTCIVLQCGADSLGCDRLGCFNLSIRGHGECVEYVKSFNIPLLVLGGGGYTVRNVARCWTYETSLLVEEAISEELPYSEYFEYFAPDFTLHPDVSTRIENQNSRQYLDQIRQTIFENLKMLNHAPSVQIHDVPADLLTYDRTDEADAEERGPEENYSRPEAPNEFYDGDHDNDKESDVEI
T3 sequence (Q9Y618 395-489 partner limits assumed): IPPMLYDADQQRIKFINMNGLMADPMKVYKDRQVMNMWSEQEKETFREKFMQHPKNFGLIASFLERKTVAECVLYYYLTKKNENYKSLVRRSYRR
Procedure: as §1, §2

[3] = brain, read-out: AUC(last) Brain
[4] = plasma, read-out: AUC(last) Plasma

| Compound | AUC(0-t) [1, 3] | AUC(0-t) [1, 4] | Kp [1] | AUC(0-t) [2, 3] | AUC(0-t) [2, 4] | Kp [2] | IC50 (HDAC1) | IC50 (HDAC2) | IC50 (HDAC3) |
| --- | --- | --- | --- | --- | --- | --- | --- | --- | --- |
| Nc1ccc(-c2ccccc2)cc1NC(=O)c1ccc(N2CCNCC2)nn1 [Compound 003] | 3000 to 4000 ng·h/mL | 1000 to 1100 ng·h/mL | 1 to 5 | 7900 to 8000 ng·h/mL | 4700 to 4800 ng·h/mL | 1 to 5 | 0.001 to 0.01 µM | 0.02 to 0.03 µM | 0.17 to 0.18 µM |
| COCCOc1ccc(C(=O)Nc2cc(-c3cccs3)ccc2N)nn1 [Compound 008] | 200 to 300 ng·h/mL | 600 to 700 ng·h/mL | 0.1 to 1.5 | 1300 to 1400 ng·h/mL | 2900 to 3000 ng·h/mL | 0.1 to 1.5 | 0.001 to 0.01 µM | 0.02 to 0.03 µM | 0.26 to 0.27 µM |
| Cc1ccc(-c2ccc(N)c(NC(=O)c3ccc(N4CCNCC4)cn3)c2)cc1 [Compound 001] | 19000 to 20000 ng·h/mL | 1400 to 1500 ng·h/mL | 10 to 15 | 64700 to 64800 ng·h/mL | 6700 to 6800 ng·h/mL | 1 to 5 | 0.01 to 0.02 µM | 0.03 to 0.04 µM | 0.48 to 0.49 µM |
| Nc1ccc(-c2cccs2)cc1NC(=O)c1ccc(NC2CCN(C(=O)N3CCNCC3)CC2)cn1 [Compound 014] | 100 to 200 ng·h/mL | 1500 to 1600 ng·h/mL | 0.05 to 0.1 | 200 to 300 ng·h/mL | 7400 to 7500 ng·h/mL | 0.01 to 0.1 | 0.001 to 0.01 µM | 0.01 to 0.02 µM | 0.05 to 0.06 µM |
| Nc1ccc(-c2ccoc2)cc1NC(=O)c1ncc(N2CCNCC2)cn1 [Compound 015] | 100 to 200 ng·h/mL | 500 to 600 ng·h/mL | 0.1 to 1.5 | < 100 ng·h/mL | 3200 to 3300 ng·h/mL | 0.01 to 0.1 | 0.01 to 0.02 µM | 0.03 to 0.04 µM | 0.11 to 0.12 µM |
| CC(=O)N1CCN(c2ccc(C(=O)Nc3cc(-c4cccs4)ccc3N)nc2)CC1 [Compound 010] | 200 to 300 ng·h/mL | 500 to 600 ng·h/mL | 0.1 to 1.5 | 200 to 300 ng·h/mL | 2000 to 2100 ng·h/mL | 0.1 to 1.5 | 0.001 to 0.01 µM | 0.01 to 0.02 µM | 0.12 to 0.13 µM |
| Nc1ccc(-c2cccs2)cc1NC(=O)c1cnc(N2CCNCC2)cn1 [Compound 017] | 9000 to 10000 ng·h/mL | 600 to 700 ng·h/mL | – | 25000 to 25300 ng·h/mL | 2700 to 2800 ng·h/mL | – | 0.001 to 0.01 µM | 0.005 to 0.015 µM | 0.03 to 0.04 µM |
| CN1CCN(c2cnc(C(=O)Nc3cc(-c4cccs4)ccc3N)nc2)CC1 [Compound 006] | 700 to 800 ng·h/mL | 200 to 300 ng·h/mL | 2 to 4 | 700 to 800 ng·h/mL | 800 to 900 ng·h/mL | 0.1 to 1.5 | 0.001 to 0.01 µM | 0.04 to 0.05 µM | 0.08 to 0.09 µM |
| Nc1ccc(-c2cccs2)cc1NC(=O)c1ccc(OC[C@H](O)CO)cn1 [Compound 013] | 200 to 300 ng·h/mL | 1100 to 1200 ng·h/mL | 0.1 to 0.3 | 300 to 400 ng·h/mL | 5900 to 6000 ng·h/mL | 0.01 to 0.1 | 0.001 to 0.01 µM | 0.02 to 0.03 µM | 0.14 to 0.15 µM |
| Nc1ccc(-c2cncs2)cc1NC(=O)c1ccc(N2CCNCC2)cn1 [Compound 012] | 400 to 500 ng·h/mL | 800 to 900 ng·h/mL | 0.1 to 1.5 | 300 to 400 ng·h/mL | 4300 to 4400 ng·h/mL | 0.01 to 0.1 | 0.001 to 0.01 µM | 0.01 to 0.02 µM | 0.02 to 0.03 µM |
| Nc1ccc(-c2cccs2)cc1NC(=O)c1ncc(N2CCNCC2)cn1 [Compound 007] | 30 to 40 ng·h/mL | 400 to 500 ng·h/mL | 0.01 to 0.1 | 900 to 1000 ng·h/mL | 1800 to 1900 ng·h/mL | 0.1 to 1.5 | 0.01 to 0.02 µM | 0.09 to 0.1 µM | 0.17 to 0.18 µM |
| COCCOc1ccc(C(=O)Nc2cc(-c3cccs3)ccc2N)nc1 [Compound 004] | 500 to 600 ng·h/mL | 700 to 800 ng·h/mL | 0.1 to 1.5 | 2100 to 2200 ng·h/mL | 2300 to 2400 ng·h/mL | 0.1 to 1.5 | 0.001 to 0.01 µM | 0.05 to 0.06 µM | 0.44 to 0.45 µM |
| CNS(=O)(=O)Oc1ccc(-c2ccc(N)c(NC(=O)c3ccc(N4CCN(C)CC4)cn3)c2)cc1 [Compound 011] | 100 to 200 ng·h/mL | 200 to 300 ng·h/mL | 0.1 to 1.5 | < 100 ng·h/mL | 900 to 1000 ng·h/mL | 0.1 to 1.5 | 0.001 to 0.01 µM | 0.01 to 0.02 µM | > 2 µM |
| Nc1ccc(-c2ccccc2)cc1NC(=O)c1ncc(NCCOCc2cccnc2)cn1 [Compound 016] | < 100 ng·h/mL | 300 to 400 ng·h/mL | 0.01 to 0.1 | < 100 ng·h/mL | 900 to 1000 ng·h/mL | 0.001 to 0.01 | 0.001 to 0.01 µM | 0.03 to 0.04 µM | 0.23 to 0.24 µM |
| Nc1ccc(-c2ccccc2)cc1NC(=O)c1ncc(N2CCNCC2)cn1 [Compound 009] | 300 to 400 ng·h/mL | 300 to 400 ng·h/mL | 0.8 to 1.5 | 200 to 300 ng·h/mL | 1700 to 1800 ng·h/mL | 0.1 to 1.5 | 0.01 to 0.02 µM | 0.07 to 0.08 µM | 0.2 to 0.21 µM |
| Nc1ccc(-c2cccs2)cc1NC(=O)c1ccc(OCCO)cn1 [Compound 005] | 600 to 700 ng·h/mL | 600 to 700 ng·h/mL | 0.8 to 1.2 | 2000 to 2100 ng·h/mL | 2300 to 2400 ng·h/mL | 0.1 to 1.5 | 0.001 to 0.01 µM | 0.01 to 0.02 µM | 0.11 to 0.12 µM |
| Nc1cc(F)c(-c2cccs2)cc1NC(=O)c1ccc(N2CCNCC2)cn1 [Compound 002] | 9000 to 10000 ng·h/mL | 400 to 500 ng·h/mL | 20 to 25 | 23100 to 23200 ng·h/mL | 2400 to 2500 ng·h/mL | 5 to 10 | 0.001 to 0.01 µM | 0.01 to 0.02 µM | 0.2 to 0.21 µM |
